pIC50: −log10 of the molar value. The source made the active and inactive calls.
Legend:
Assay type in all cases: functional
[1] = biological target: T1, G-protein coupled receptor 55 (Homo sapiens, UniProt Q9Y2T6); experiment: blockers of GPR55 signalling, imaged – imaging, image-based, counter-screen for GPR35 antagonist project, SAR follow-up (AID 2397)
[2] = biological target: T2, Kappa-type opioid receptor (Homo sapiens, UniProt P41145)
[3] = biological target: T3, Delta-type opioid receptor (Homo sapiens, UniProt P41143); experiment: HTS Image-Based Screen for Agonists of the DOR Receptor. [Related pubchem assays (depositor defined):AID1777, AID1786, AID2133]
Mu-type opioid receptor = Mu-type opioid receptor (Homo sapiens, UniProt P35372); experiment: HTS Image-Based Screen for Agonists of the MOR Receptor. [Related pubchem assays (depositor defined):AID1777, AID1785, AID1786, AID2133];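 further: imaging of beta-arrestin GFP recruitment into spots after receptor activation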
Beta-galactosidase = Beta-galactosidase (Escherichia coli, UniProt Q8VNN2)
[4] = biological target: T3, Delta-type opioid receptor; experiment: HTS Image-Based Screen for Antagonists of the DOR Receptor. [Related pubchem assays (depositor defined):AID1777, AID1785, AID1786, AID2133]
[5] = biological target: T2, Kappa-type opioid receptor; remark: listed apart in the source
[6] = biological target: T4, G-protein coupled receptor 35 (Homo sapiens, UniProt Q9HC97); experiment: SAR analysis of Antagonists of the GPR35 Receptor using an Image-Based Assay - Set 6. [Related pubchem assays (depositor defined):AID2013, AID2026]
Cannabinoid receptor 2 [7] = biological target: T5, Cannabinoid receptor 2 (Homo sapiens, UniProt P34972); experiment: SAR analysis of antagonists of the Cannabinoid Receptor 2 using an Image-Based Assay - Set 3. [Related pubchem assays (depositor defined):AID2013, AID2026]
Cannabinoid receptor 1 [8] = biological target: T6, Cannabinoid receptor 1 (Homo sapiens, UniProt P21554); experiment: SAR analysis of antagonists of the Cannabinoid Receptor 1 using an Image-Based Assay - Set 4. [Related pubchem assays (depositor defined):AID2013, AID2026]
Cannabinoid receptor 2 [9] = biological target: T5, Cannabinoid receptor 2; experiment: SAR analysis of agonists of the Cannabinoid Receptor 2 using an Image-Based Assay - Set 3. [Related pubchem assays (depositor defined):AID2013, AID2026]
[10] = biological target: T1, G-protein coupled receptor 55; experiment: SAR Analysis of Selective Antagonists of GPR55 using an Image-Based Assay - Set 4. [Related pubchem assays (depositor defined):AID2013, AID2026]
Cannabinoid receptor 1 [11] = biological target: T6, Cannabinoid receptor 1; experiment: SAR analysis of agonists of the Cannabinoid Receptor 1 using an Image-Based Assay - Set 4. [Related pubchem assays (depositor defined):AID2013, AID2026]
[12] = biological target: T4, G-protein coupled receptor 35; experiment: SAR analysis of Agonists of the GPR35 Receptor using an Image-Based Assay - Set 4. [Related pubchem assays (depositor defined):AID2013, AID2026]
[13] = biological target: Voltage-dependent T-type calcium channel subunit alpha-1H (Homo sapiens, UniProt O95180); experiment: human CACNA1H calcium influx blockade – cell-based, synthetic library set 2, HEK293 HH8, Fluo-4, SAR follow-up (AID 493023)

T3 sequence (P41143 whole entry): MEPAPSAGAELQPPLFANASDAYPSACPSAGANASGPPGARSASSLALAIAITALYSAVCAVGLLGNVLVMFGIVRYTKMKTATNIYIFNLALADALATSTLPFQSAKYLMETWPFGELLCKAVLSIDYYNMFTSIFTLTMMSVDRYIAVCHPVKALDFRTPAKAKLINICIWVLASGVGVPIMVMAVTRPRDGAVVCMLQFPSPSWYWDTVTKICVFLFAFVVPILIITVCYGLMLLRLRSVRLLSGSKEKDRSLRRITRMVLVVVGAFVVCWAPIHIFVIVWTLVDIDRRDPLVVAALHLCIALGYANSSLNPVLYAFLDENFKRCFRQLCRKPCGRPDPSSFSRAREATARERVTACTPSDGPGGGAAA
T4 sequence (Q9HC97 whole entry): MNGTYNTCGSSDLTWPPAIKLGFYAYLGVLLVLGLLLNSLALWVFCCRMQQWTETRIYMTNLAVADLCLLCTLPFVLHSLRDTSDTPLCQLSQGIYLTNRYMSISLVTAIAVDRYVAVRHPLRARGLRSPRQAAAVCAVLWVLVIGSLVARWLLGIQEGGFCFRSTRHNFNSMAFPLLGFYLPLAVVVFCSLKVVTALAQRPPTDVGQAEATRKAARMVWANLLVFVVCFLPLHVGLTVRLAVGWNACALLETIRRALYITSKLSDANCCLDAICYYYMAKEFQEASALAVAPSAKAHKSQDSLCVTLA
T2 sequence (P41145 whole entry): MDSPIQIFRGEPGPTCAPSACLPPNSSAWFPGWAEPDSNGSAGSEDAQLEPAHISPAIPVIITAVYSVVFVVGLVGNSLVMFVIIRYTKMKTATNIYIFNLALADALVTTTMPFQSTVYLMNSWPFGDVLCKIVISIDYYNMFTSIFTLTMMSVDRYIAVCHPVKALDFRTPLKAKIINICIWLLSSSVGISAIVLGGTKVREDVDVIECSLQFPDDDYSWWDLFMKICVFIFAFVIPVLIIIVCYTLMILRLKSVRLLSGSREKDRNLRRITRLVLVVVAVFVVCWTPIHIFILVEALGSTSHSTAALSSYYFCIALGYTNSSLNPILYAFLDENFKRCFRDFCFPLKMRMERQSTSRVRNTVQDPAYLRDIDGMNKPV
T1 sequence (Q9Y2T6 whole entry): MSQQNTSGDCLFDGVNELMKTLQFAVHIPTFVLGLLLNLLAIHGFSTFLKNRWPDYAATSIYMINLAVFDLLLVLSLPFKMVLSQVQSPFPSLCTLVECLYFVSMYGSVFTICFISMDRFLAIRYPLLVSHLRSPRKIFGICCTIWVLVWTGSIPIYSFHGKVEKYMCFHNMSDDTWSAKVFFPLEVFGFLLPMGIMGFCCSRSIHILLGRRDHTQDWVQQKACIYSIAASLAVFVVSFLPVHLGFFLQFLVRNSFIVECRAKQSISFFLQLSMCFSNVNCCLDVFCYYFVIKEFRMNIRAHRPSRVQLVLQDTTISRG
T5 sequence (P34972 whole entry): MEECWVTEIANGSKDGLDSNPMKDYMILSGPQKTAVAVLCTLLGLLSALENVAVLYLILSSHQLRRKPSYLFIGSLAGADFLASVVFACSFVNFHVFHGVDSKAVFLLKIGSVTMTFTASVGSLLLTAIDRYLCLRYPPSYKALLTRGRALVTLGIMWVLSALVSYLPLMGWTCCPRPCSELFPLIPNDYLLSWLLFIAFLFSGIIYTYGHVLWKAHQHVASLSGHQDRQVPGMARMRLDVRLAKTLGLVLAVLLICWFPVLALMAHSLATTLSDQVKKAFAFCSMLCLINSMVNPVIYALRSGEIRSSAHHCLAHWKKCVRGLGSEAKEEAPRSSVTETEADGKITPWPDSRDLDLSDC
T6 sequence (P21554 whole entry): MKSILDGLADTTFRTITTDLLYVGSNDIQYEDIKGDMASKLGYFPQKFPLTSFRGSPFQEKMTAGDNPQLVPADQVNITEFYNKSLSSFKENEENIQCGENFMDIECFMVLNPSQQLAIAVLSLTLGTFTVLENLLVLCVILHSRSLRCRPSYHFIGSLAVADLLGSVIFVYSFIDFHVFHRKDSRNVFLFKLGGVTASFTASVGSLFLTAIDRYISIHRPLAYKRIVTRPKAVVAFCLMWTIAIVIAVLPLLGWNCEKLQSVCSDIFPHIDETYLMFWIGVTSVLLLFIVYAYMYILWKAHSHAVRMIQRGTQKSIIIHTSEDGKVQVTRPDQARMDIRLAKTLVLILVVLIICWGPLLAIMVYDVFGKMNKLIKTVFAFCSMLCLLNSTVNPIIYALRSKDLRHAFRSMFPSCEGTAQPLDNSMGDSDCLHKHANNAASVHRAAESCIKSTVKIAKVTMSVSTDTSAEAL
Sequence of Beta-galactosidase (Q8VNN2 whole entry): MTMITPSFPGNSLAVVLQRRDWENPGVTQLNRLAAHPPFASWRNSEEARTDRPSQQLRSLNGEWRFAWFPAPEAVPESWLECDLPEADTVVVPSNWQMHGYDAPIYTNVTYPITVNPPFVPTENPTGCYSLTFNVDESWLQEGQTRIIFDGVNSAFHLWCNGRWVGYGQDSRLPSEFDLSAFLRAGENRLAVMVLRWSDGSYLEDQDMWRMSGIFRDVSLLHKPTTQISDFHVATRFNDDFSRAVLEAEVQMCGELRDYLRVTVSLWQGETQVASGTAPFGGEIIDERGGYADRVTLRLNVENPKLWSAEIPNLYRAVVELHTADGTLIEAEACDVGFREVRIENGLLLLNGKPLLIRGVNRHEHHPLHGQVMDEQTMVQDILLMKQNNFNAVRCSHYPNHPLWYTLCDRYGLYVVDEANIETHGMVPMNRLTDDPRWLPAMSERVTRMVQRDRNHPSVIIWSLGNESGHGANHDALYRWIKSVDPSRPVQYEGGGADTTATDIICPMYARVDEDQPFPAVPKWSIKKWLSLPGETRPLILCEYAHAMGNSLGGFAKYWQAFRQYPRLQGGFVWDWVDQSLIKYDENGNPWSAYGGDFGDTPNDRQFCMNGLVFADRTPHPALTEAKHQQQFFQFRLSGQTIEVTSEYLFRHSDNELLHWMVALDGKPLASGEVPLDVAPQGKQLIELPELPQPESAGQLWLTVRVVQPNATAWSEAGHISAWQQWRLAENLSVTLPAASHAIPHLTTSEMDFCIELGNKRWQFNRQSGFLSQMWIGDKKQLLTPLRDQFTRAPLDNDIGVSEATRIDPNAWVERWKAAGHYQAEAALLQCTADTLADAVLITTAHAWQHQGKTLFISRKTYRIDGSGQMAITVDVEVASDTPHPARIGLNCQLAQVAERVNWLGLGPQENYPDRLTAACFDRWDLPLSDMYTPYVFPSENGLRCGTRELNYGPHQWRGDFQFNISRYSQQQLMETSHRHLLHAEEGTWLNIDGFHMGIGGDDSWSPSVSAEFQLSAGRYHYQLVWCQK
Sequence of Mu-type opioid receptor (P35372 whole entry): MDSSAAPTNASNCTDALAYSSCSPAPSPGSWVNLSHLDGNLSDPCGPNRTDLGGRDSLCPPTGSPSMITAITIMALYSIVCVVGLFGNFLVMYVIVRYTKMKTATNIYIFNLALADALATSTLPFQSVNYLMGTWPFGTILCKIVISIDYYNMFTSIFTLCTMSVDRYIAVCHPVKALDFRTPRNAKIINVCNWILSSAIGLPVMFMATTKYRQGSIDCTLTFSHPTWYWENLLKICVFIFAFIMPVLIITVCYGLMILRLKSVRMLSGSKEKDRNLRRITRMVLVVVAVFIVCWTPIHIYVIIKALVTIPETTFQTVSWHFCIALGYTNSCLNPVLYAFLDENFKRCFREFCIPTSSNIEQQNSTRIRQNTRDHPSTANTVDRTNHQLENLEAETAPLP

For `Cc1ccc(C)c(OCCC(=O)NCCc2ccc(S(N)(=O)=O)cc2)c1`, which IC50 [1] is on record?
The IC50 was > 32 µM (inactive).

How did the pIC50 [2] turn out when `CC(=O)Nc1ccc(NC(=O)C(C)OC(=O)c2ccccc2C(=O)c2ccc(Cl)c([N+](=O)[O-])c2)cc1` (stereo not given) was run?
Its pIC50 is 5.06.

And the EC50 [3]?
Its EC50 is > 32 µM (inactive).

And the EC50 (Mu-type opioid receptor)?
Its EC50 is > 32 µM (inactive).

And the EC50 (Beta-galactosidase)?
The EC50 was > 31.5 µM (inactive).

And the IC50 [4]?
Its IC50 is > 32 µM (inactive).

What about the IC50 [5] of the same compound?
Its IC50 is 8.15 µM (active).

How did the IC50 [6] turn out when `Cc1nc(N2CCN(C(=O)c3ccccc3)CC2)c2c3c(sc2n1)CC(C)CC3` (stereo not given) was run?
Its IC50 is > 32 µM (inactive).

And the IC50 (Cannabinoid receptor 2 [7])?
Its IC50 is > 9.18 µM (active).

What about the IC50 (Cannabinoid receptor 1 [8]) of the same compound?
Its IC50 is 1.68 µM (active).

What about the EC50 (Cannabinoid receptor 2 [9]) of the same compound?
Its EC50 is 24.1 µM (inactive).

And the IC50 [10]?
Its IC50 is 21.5 µM (inactive).

And the EC50 (Cannabinoid receptor 1 [11])?
Its EC50 is > 32 µM (inactive).

And the EC50 [12]?
Its EC50 is > 32 µM (inactive).

How did the EC50 [13] turn out when `O=C(COc1ccccc1Cl)N[C@H]1CCCN(Cc2ccccc2)C1` was run?
The EC50 was 10 µM (active).

Source: ChEMBL document CHEMBL1201862, “PubChem BioAssay data set” (2004)
